Reference: ChEMBL document CHEMBL4840311, “Discovery of novel nitrogenous heterocyclic-containing quinoxaline-1,4-di-N-oxides as potent activator of autophagy in M.tb-infected macrophages” (Eur J Med Chem, 2021)
pIC50: −log10 of the molar value. Values after ≈ are worked out from the molar mass of the structure shown.

Legend:
[1] = tested on: Mycobacterium tuberculosis; test: Antimycobacterial activity against Mycobacterium tuberculosis H37Rv ATCC 27294 assessed as inhibition of bacterial growth measured after 5 days by microplate alamar blue assay; assay type: functional; conditions: H37Rv ATCC 27294, 120 h, time 5 day
[2] = tested on: Vero; test: Cytotoxicity against African green monkey Vero cells assessed as reduction in cell viability measured after 72 hrs by MTT assay; assay type: cell-based; conditions: Chlorocebus sabaeus
[3] = Selectivity index, ratio of IC50 for African green monkey Vero cells measured after 72 hrs by MTT assay to MIC for antimycobacterial activity against Mycobacterium tuberculosis H37Rv ATCC 27294 assessed as inhibition of bacterial growth measured after 5 days by microplate alamar blue assay; assay type: toxicity; conditions: read-out: Selectivity Index
[4] = tested on: J774.A1; test: Cytotoxicity against mouse J774.A1 cells assessed as reduction in cell viability measured after 72 hrs by MTT assay; assay type: cell-based; conditions: J774.A1, 72 h

| Structure (SMILES) | MIC [1] [µg/mL] | pIC50 [2] | selectivity ratio at 72 hrs [3] | pIC50 [4] |
| --- | --- | --- | --- | --- |
| CC(=O)c1c(C)[n+]([O-])c2cc(F)c(F)cc2[n+]1[O-] | 2 (≈ 7.87 µM) | 4.65 | 2.8 | – |
| CCOC(=O)c1c(C)[n+]([O-])c2cc(N3CCNCC3)c(F)cc2[n+]1[O-] | 4 (≈ 11.4 µM) | – | – | – |
| CO[C@H]1/C=C/O[C@@]2(C)Oc3c(C)c(O)c4c(O)c(c(/C=N/N5CCN(C)CC5)c(O)c4c3C2=O)NC(=O)/C(C)=C\C=C\[C@H](C)[C@H](O)[C@@H](C)[C@@H](O)[C@@H](C)[C@H](OC(C)=O)[C@@H]1C [RIFAMPIN] | 0.0625 (≈ 0.0759 µM) | – | – | – |
| CC(=O)c1c(C)[n+]([O-])c2ccccc2[n+]1[O-] [MEQUINDOX] | 8 (≈ 36.7 µM) | – | – | – |
| Cc1c(C(=O)OC(C)C)[n+]([O-])c2cc(F)c(F)cc2[n+]1[O-] | 16 (≈ 53.6 µM) | – | – | – |
| Cc1c(C(=O)CC(C)C)[n+]([O-])c2ccccc2[n+]1[O-] | 64 (≈ 246 µM) | – | – | – |
| CCCC(=O)c1c(C)[n+]([O-])c2ccccc2[n+]1[O-] | 64 (≈ 260 µM) | – | – | – |
| Cc1c(C(=O)OC(C)C)[n+]([O-])c2cc(F)c(-n3ccnc3)cc2[n+]1[O-] | 2 (≈ 5.78 µM) | 3.95 | 19.5 | 4.11 |
| CC(=O)c1c(C)[n+]([O-])c2cc(N3CCNCC3)ccc2[n+]1[O-] | 64 (≈ 212 µM) | – | – | – |
| CCOC(=O)c1c(C)[n+]([O-])c2cc(-n3ccnc3)c(F)cc2[n+]1[O-] | 0.25 (≈ 0.752 µM) | 3.89 | 172 | 4.11 |
| CCOC(=O)c1c(C(F)(F)F)[n+]([O-])c2cc(N3CCNCC3)c(F)cc2[n+]1[O-] | 0.5 (≈ 1.24 µM) | 4.50 | 25.3 | – |
| CC(=O)c1c(C)[n+]([O-])c2cc(-n3ccnc3)c(F)cc2[n+]1[O-] | 0.5 (≈ 1.65 µM) | 4.02 | 46.4 | 4.11 |
| CCOC(=O)c1c(C)[n+]([O-])c2cc(N3CCNC(C)C3)c(F)cc2[n+]1[O-] (stereo not drawn) | 8 (≈ 22 µM) | – | – | – |
| Cc1c(C(=O)CC(C)C)[n+]([O-])c2cc(F)c(N3CCNCC3)cc2[n+]1[O-] | 32 (≈ 88.3 µM) | – | – | – |
| CC(=O)c1c(C)[n+]([O-])c2cc(N3CCNCC3)c(F)cc2[n+]1[O-] | 4 (≈ 12.5 µM) | – | – | – |
